Laboratory results as given in paper PMC11714206, “Massively Parallel Screening of Toll/Interleukin‐1 Receptor (TIR)‐Derived Peptides Reveals Multiple Toll‐Like Receptors (TLRs)‐Targeting Immunomodulatory Peptides” (Advanced Science, 2024).

Assays:
[1] = biological target: T1, MyD88^TIR (Homo sapiens, UniProt Q99836); assay: T‐Surf phage library (P8 and P3) selection against MyD88^TIR, four rounds, NGS read counts; assay type: binding; details: P3 library
T1 construct: MyD88 (residues 148–296); 6xHis; made in house; host or cells: E. coli BL21 (DE3)
T1 sequence (Q99836 148-296): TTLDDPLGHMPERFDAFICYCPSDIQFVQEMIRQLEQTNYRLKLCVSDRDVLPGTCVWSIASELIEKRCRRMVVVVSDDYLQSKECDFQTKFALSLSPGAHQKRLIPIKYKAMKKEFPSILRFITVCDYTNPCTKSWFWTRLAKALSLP
Method in brief: (§1)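 P8 and P3 T‐Surf libraries panned against plate-coated TIR domains (5 µg mL^−1), 1 h binding at RT, acid elution and TG1/helper-phage amplification per round. After four rounds, pools were PCR-barcoded and sequenced (NovaSeq, 100 bp paired-end, Phred ≥30); peptides ranked by read counts.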

[2] = biological target: T2, MAL^TIR (Homo sapiens, UniProt P58753); assay: T‐Surf phage library (P8 and P3) selection against MAL^TIR, four rounds, NGS read counts; assay type: binding; details: for P3_MAL Rank (after) / P3_MAL Rank (before): P3 library; for P8_MAL Rank (after) / P8_MAL Rank (before): P8 library; for Population: 4th round of selection against MAL TIR, share of NGS reads
T2 construct: MAL (residues 79–221); 6xHis; made in house; host or cells: E. coli BL21 (DE3)
T2 sequence (P58753 79-221): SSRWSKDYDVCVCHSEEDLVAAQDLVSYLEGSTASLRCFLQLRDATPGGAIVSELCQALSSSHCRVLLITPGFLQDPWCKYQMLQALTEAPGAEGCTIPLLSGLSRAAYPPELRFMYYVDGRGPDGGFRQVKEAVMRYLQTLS
Method in brief: as §1

[3] = 4R selection against MAL, rank after grouping
[4] = 4R selection against MAL, rank before grouping
[5] = P3_MAL: rank by count after grouping
[6] = P3_MAL: rank by count before grouping
[7] = selection against MAL, rank after grouping
[8] = selection against MAL, rank before grouping
[9] = P8_MAL: rank by count after grouping
[10] = P8_MAL: rank by count before grouping
[11] = selection against MAL, rank by count after grouping
[12] = selection against MAL, rank by count before grouping
[13] = selection against MAL TIR, rank by count after grouping
[14] = selection against MAL TIR, rank by count before grouping

NQWKLALTKVANLV
P3_MyD88 Rank (after) ([1]; 4R selection against MyD88, rank after grouping): 579 | P3_MyD88 Rank (before) ([1]; 4R selection against MyD88, rank before grouping): 3536 | P3_MAL Rank (after) [2, 3]: 638 | P3_MAL Rank (before) [2, 4]: 3421

PNLSNKVMNYLMRTQT
P3_MAL Rank (after) [2, 3]: 634 | P3_MAL Rank (before) [2, 4]: 2753

RLRKWKEALHQFHSWG
P3_MAL Rank (after) [2, 3]: 636 | P3_MAL Rank (before) [2, 4]: 2547

ESILDQLRRRSQSIAN
P3_MAL Rank (after) [2, 3]: 591 | P3_MAL Rank (before) [2, 4]: 2042

MVRVKAFHKRLKTALG
Rank (after) [2, 5]: 438 | Rank (before) [2, 6]: 2922

TFLGPQYNALVQAGTH
P8_MAL Rank (after) [2, 7]: 484 | P8_MAL Rank (before) [2, 8]: 2554

AFFWAQLKSVLGNPAR
P8_MAL Rank (after) [2, 3]: 605 | P8_MAL Rank (before) [2, 4]: 1630

AFFWAQPKSVLGNPTV
Rank (after) [2, 9]: 103 | Rank (before) [2, 10]: 1645

LFFWESLKNVLRKPGL
P8_MAL Rank (after) [2, 7]: 495 | P8_MAL Rank (before) [2, 8]: 2116

SFFDRLVSVILRDTNV
P8_MAL Rank (after) [2, 11]: 701 | P8_MAL Rank (before) [2, 12]: 1441

WFYERLVILILRDTKV
Population ([2]; P8_MAL pool: P8 T-Surf phage library): 0.00278%

KERPFGAQRAEKWRA
P3_MAL Rank (after) [2, 11]: 736 | P3_MAL Rank (before) [2, 12]: 3610

RGFLSNLGHHLQAKDH
Rank (after) [2, 5]: 440 | Rank (before) [2, 6]: 2401

SLCKNLVTNLIEEFNR
Rank (after) [2, 5]: 456 | Rank (before) [2, 6]: 3062

LFYEESLKQLLRANDR
P8_MAL Rank (after) [2, 13]: 276 | P8_MAL Rank (before) [2, 14]: 1101

HHKGSYGEALHQFHSWV
P3_MAL Rank (after) [2, 7]: 541 | P3_MAL Rank (before) [2, 8]: 2842

LFFWESLKQLLRRWP
P8_MAL Rank (after) [2, 7]: 563 | P8_MAL Rank (before) [2, 8]: 2097

TFLGHLYMRWCRRAF
P8_MAL Rank (after) [2, 3]: 625 | P8_MAL Rank (before) [2, 4]: 2560

LKVEGWRLALEKAGTL
P3_MAL Rank (after) [2, 7]: 484 | P3_MAL Rank (before) [2, 8]: 2258

NGHGSAIIKEIVVTSW
Rank (after) [2, 5]: 468 | Rank (before) [2, 6]: 3252

WFYERLLTVIDRDTEV
P8_MAL Rank (after) [2, 7]: 500 | P8_MAL Rank (before) [2, 8]: 1159

LGKPGVTDEAQETGSL
Rank (after) [2, 5]: 95 | Rank (before) [2, 6]: 95

RKFWAYLFQALANKGS
P8_MAL Rank (after) [2, 7]: 551 | P8_MAL Rank (before) [2, 8]: 2253

WFYARLVSLLLRDTKV
Rank (after) [2, 9]: 150 | Rank (before) [2, 10]: 1132

SAAYDDFWDRLIRMIE
Rank (after) [2, 9]: 173 | Rank (before) [2, 10]: 1007

RGYLRHVRHHLQAKDH
P3_MAL Rank (after) [2, 3]: 657 | P3_MAL Rank (before) [2, 4]: 2426

RNNFLGYLYQALYRIG
P8_MAL Rank (after) [2, 3]: 604 | P8_MAL Rank (before) [2, 4]: 2263

RFMMKFRTELDRGNGG
P8_MAL Rank (after) [2, 7]: 489 | P8_MAL Rank (before) [2, 8]: 2304

AFLYTFLLNLTHPTNL
P8_MAL Rank (after) [2, 13]: 223 | P8_MAL Rank (before) [2, 14]: 1830

AFFWAQLKQLLRSDGR
P8_MAL Rank (after) [2, 3]: 629 | P8_MAL Rank (before) [2, 4]: 1610

AFFWEHLRPLLGKQAM
P8_MAL Rank (after) [2, 3]: 622 | P8_MAL Rank (before) [2, 4]: 1711

SEFIQKIILWLNTKIV
P8_MAL Rank (after) [2, 13]: 203 | P8_MAL Rank (before) [2, 14]: 2461

NQWHNALAAAANLLGL
Rank (after) [2, 5]: 473 | Rank (before) [2, 6]: 3418

RNNFICHLYQELYRIG
Rank (after) [2, 9]: 428 | Rank (before) [2, 10]: 2264

DHHLDLPLAKRLNRKFW
P3_MAL Rank (after) [2, 7]: 492 | P3_MAL Rank (before) [2, 8]: 1922

WFYERMVRLILRDTKV
P8_MAL Rank (after) [2, 13]: 247 | P8_MAL Rank (before) [2, 14]: 1291

YAFTGHLQRYLVQRGE
P3_MAL Rank (after) [2, 11]: 719 | P3_MAL Rank (before) [2, 12]: 1435

WFYERLVRLFLRDTKV
Rank (after) [2, 9]: 446 | Rank (before) [2, 10]: 1237

TFLGHLYSALVHAGIH
Rank (after) [2, 9]: 479 | Rank (before) [2, 10]: 2561

KELLHKWKLALTQTPN
P3_MAL Rank (after) [2, 3]: 621 | P3_MAL Rank (before) [2, 4]: 3593

VRHSFAGYRYDALNRL
P3_MAL Rank (after) [2, 13]: 197 | P3_MAL Rank (before) [2, 14]: 1698

NQWRDPLTGDMILSGW
P3_MAL Rank (after) [2, 11]: 767 | P3_MAL Rank (before) [2, 12]: 3336

LFFWEKLKSVLGNPTM
P8_MAL Rank (after) [2, 11]: 693 | P8_MAL Rank (before) [2, 12]: 2067

CFLFTVRSAIYAMNPA
Rank (after) [2, 9]: 445 | Rank (before) [2, 10]: 1109

LRKIADLSGWTLKSFR
P8_MAL Rank (after) [2, 11]: 677 | P8_MAL Rank (before) [2, 12]: 2165

YAFTGHLHRSLVQRGV
Population ([2]; P3_MAL pool: P3 T-Surf phage library): 0.00413%

AFFWAQLKSTLGETSF
P8_MAL Rank (after) [2, 7]: 567 | P8_MAL Rank (before) [2, 8]: 1640

AFLYTFLIILTHPINF
P8_MAL Rank (after) [2, 11]: 688 | P8_MAL Rank (before) [2, 12]: 1833

PKLRTKVMNYLMRTKT
Rank (after) [2, 5]: 155 | Rank (before) [2, 6]: 2759
